This passage reports Activity and IC50 results from ChEMBL document CHEMBL5143606, “Selective Wee1 degradation by PROTAC degraders recruiting VHL and CRBN E3 ubiquitin ligases” (Bioorg Med Chem Lett, 2022).

In experiment [1] the target is T1, Protein cereblon/Wee1-like protein kinase (Homo sapiens) (UniProt P30291+Q96SW2). As to the kind of experiment: PROTAC activity at CRBN/Wee1 in human HeLa S3 cells assessed as induction of Wee1 degradation by measuring reduction in phosphorylation of CDK1 at Tyr15 residue at 1 uM measured after 24 hrs by Western blot analysis relative to control. In kind it is cell-based. Details: scale not given: the % may be the effect or the level left.

In experiment [2] the target is T1, Protein cereblon/Wee1-like protein kinase (Homo sapiens). Briefly: PROTAC activity at CRBN/Wee1 in human HeLa S3 cells assessed as induction of Wee1 degradation at 1 uM measured after 24 hrs by Western blot analysis relative to control. In kind it is cell-based.
For experiment [3], the target named is T2, von Hippel-Lindau disease tumor suppressor/Wee1-like protein kinase (Homo sapiens) (UniProt P30291+P40337). Briefly: PROTAC activity at VHL/Wee1 in human HeLa S3 cells assessed as induction of Wee1 degradation at 1 uM measured after 24 hrs by Western blot analysis relative to control. In kind it is cell-based. For orientation: In western blotting, separated proteins are transferred to a membrane and probed.

The target in experiment [4] is T2, von Hippel-Lindau disease tumor suppressor/Wee1-like protein kinase (Homo sapiens). As to the kind of experiment: PROTAC activity at VHL/Wee1 in human HeLa S3 cells assessed as induction of Wee1 degradation at 1 uM measured after 4 hrs by Western blot analysis. In kind it is cell-based.
The target is the same in experiment [5]. As to the kind of experiment: PROTAC activity at VHL/Wee1 in human HeLa S3 cells assessed as induction of Wee1 degradation by measuring reduction in phosphorylation of CDK1 at Tyr15 residue at 1 uM measured after 24 hrs by Western blot analysis relative to control. In kind it is cell-based. Details: scale not given: the % may be the effect or the level left.

For experiment [6], the target named is T1, Protein cereblon/Wee1-like protein kinase (Homo sapiens). Briefly: PROTAC activity at CRBN/Wee1 in human HeLa S3 cells assessed as induction of Wee1 degradation at 30 to 10000 nM measured after 4 hrs by Western blot analysis. It is filed as cell-based. The settings on record: dose 30-10000 nM.
The target is the same in experiment [7]. As to the kind of experiment: PROTAC activity at CRBN/Wee1 in human HeLa S3 cells assessed as induction of Wee1 degradation by measuring reduction in phosphorylation of CDK1 at Tyr15 residue at 100 to 10000 nM measured after 4 hrs by Western blot analysis. It is filed as cell-based. The settings on record: dose 100-10000 nM.
The subject of experiment [8] is BT-549. Briefly: Antiproliferative activity against human BT-549 cells assessed as inhibition of cell growth measured after 72 hrs by MTS assay. It is filed as functional, cell-based. The settings on record: BT-549, 72 h.
Experiment [9] deals with T1, Protein cereblon/Wee1-like protein kinase (Homo sapiens). Briefly: PROTAC activity at CRBN/Wee1 in human HeLa S3 cells assessed as induction of Wee1 degradation by measuring reduction in phosphorylation of CDK1 at Tyr15 at above 1 uM measured after 24 to 48 hrs by Western blot analysis. Particulars: time 24-48 hrs. It is filed as cell-based.
In experiment [10] the test system is PC-3. Briefly: Antiproliferative activity against human PC-3 cells assessed as inhibition of cell growth measured after 72 hrs by MTS assay. In kind it is functional, cell-based. Particulars: PC-3, 72 h.
For experiment [11], the system named is LNCaP. Briefly: Antiproliferative activity against human LNCaP cells assessed as inhibition of cell growth measured after 72 hrs by MTS assay. It is filed as functional, cell-based. In general terms: Tetrazolium dyes change colour on reduction, which living cells bring about.
The test system of experiment [12] is MCF7. As to the kind of experiment: Antiproliferative activity against human MCF7 cells assessed as inhibition of cell growth measured after 72 hrs by MTS assay. Particulars: MCF7, 72 h. In kind it is functional, cell-based.
In experiment [13] the target is T2, von Hippel-Lindau disease tumor suppressor/Wee1-like protein kinase (Homo sapiens). As to the kind of experiment: PROTAC activity at VHL/Wee1 in human HeLa S3 cells assessed as induction of Wee1 degradation by measuring reduction in phosphorylation of CDK1 at Tyr15 residue at higher concentration measured after 4 hrs by Western blot analysis. It is filed as cell-based.

The target of experiment [14] is T1, Protein cereblon/Wee1-like protein kinase (Homo sapiens). As to the kind of experiment: PROTAC activity at CRBN/Wee1 in human HeLa S3 cells assessed as induction of Wee1 degradation at 1 uM measured after 4 hrs by Western blot analysis. It is filed as cell-based.
In experiment [15] the target is T2, von Hippel-Lindau disease tumor suppressor/Wee1-like protein kinase (Homo sapiens). Briefly: PROTAC activity at VHL/Wee1 in human HeLa S3 cells assessed as induction of Wee1 degradation by measuring reduction in CDK1 phosphorylation at Tyr15 residue at above 1 uM measured after 24 to 48 hrs by Western blot analysis. The settings on record: time 24-48 hrs. In kind it is cell-based.

Experiment [16] shares this target. As to the kind of experiment: PROTAC activity at VHL/Wee1 in human HeLa S3 cells assessed as induction of Wee1 degradation at 1 uM measured after 24 to 48 hrs by Western blot analysis. In kind it is cell-based. Particulars: time 24-48 hrs.

Each structure is given as a SMILES string. Activity calls are given as the source filed them. The rule behind the calls is not given here.

For the compound `C=CCn1c(=O)c2cnc(Nc3ccc(N4CCN(CCCC(=O)NCCCCCCCC(=O)NCCNc5cccc6c5C(=O)N(C5CCC(=O)NC5=O)C6=O)CC4)cc3)nc2n1-c1cccc(C(C)(C)O)n1` (configuration not stated), the Activity was 88% in experiment [1] and 83% in [2].

As for `C=CCn1c(=O)c2cnc(Nc3ccc(N4CCN(CCCC(=O)NCCOCCOCCOCCOCCC(=O)N[C@H](C(=O)N5C[C@H](O)C[C@H]5C(=O)NCc5ccc(-c6scnc6C)cc5)C(C)(C)C)CC4)cc3)nc2n1-c1cccc(C(C)(C)O)n1`, the Activity in experiment [3] worked out at 108%; in experiment [5] it was 80%. Moreover, the result in [4] was Active.

As for `C=CCn1c(=O)c2cnc(Nc3ccc(N4CCN(CCCC(=O)NCCCCCCNc5cccc6c5C(=O)N(C5CCC(=O)NC5=O)C6=O)CC4)cc3)nc2n1-c1cccc(C(C)(C)O)n1` (configuration not stated), the values for the Activity in experiment [1] and in experiment [2] were 39% and 23%, respectively. For the same compound, the result in experiment [6] and in experiment [7] was Active.

In general, IC50 refers to the concentration at which inhibition is half-maximal. `C=CCn1c(=O)c2cnc(Nc3ccc(N4CCN(CCCC(=O)NCCOCCOCCNc5cccc6c5C(=O)N(C5CCC(=O)N(C)C5=O)C6=O)CC4)cc3)nc2n1-c1cccc(C(C)(C)O)n1` (configuration not stated): the IC50 is 9 µM in [8], > 20 µM in experiment [10], 11 µM in [11] and 11 µM in experiment [12]. Moreover, the outcome in [9] was Active.

Regarding `C=CCn1c(=O)c2cnc(Nc3ccc(N4CCN(CCCC(=O)NCCOCCOCCOCCOCCNc5cccc6c5C(=O)N(C5CCC(=O)NC5=O)C6=O)CC4)cc3)nc2n1-c1cccc(C(C)(C)O)n1` (configuration not stated), the Activity is 65% in [1] and 45% in experiment [2].

Turning to `C=CCn1c(=O)c2cnc(Nc3ccc(N4CCN(CCCC(=O)NCCOCCOCCOCC(=O)NCCNc5cccc6c5C(=O)N(C5CCC(=O)NC5=O)C6=O)CC4)cc3)nc2n1-c1cccc(C(C)(C)O)n1` (configuration not stated), the Activity in experiment [1] stood at 84%; in experiment [2], 96%.

Turning to `C=CCn1c(=O)c2cnc(Nc3ccc(N4CCN(CCCC(=O)NCCOCCOCCOCC(=O)N[C@H](C(=O)N5C[C@H](O)C[C@H]5C(=O)NCc5ccc(-c6scnc6C)cc5)C(C)(C)C)CC4)cc3)nc2n1-c1cccc(C(C)(C)O)n1`, the Activity is 94% in experiment [3] and 72% in [5].

With `C=CCn1c(=O)c2cnc(Nc3ccc(N4CCN(CCCC(=O)NCCCCCCCC(=O)N[C@H](C(=O)N5C[C@H](O)C[C@H]5C(=O)NCc5ccc(-c6scnc6C)cc5)C(C)(C)C)CC4)cc3)nc2n1-c1cccc(C(C)(C)O)n1`, the Activity came to 68% in [3] and 53% in experiment [5]. Also, the outcome in [13] was Active.

Turning to `C=CCn1c(=O)c2cnc(Nc3ccc(N4CCN(CCCC(=O)NCCOCCOCCOCCNc5cccc6c5C(=O)N(C5CCC(=O)NC5=O)C6=O)CC4)cc3)nc2n1-c1cccc(C(C)(C)O)n1` (configuration not stated), the Activity in experiment [1] came out at 66%; in experiment [2] it was 59%.

With `C=CCn1c(=O)c2cnc(Nc3ccc(N4CCN(CCCC(=O)NCCCCCCCCCCC(=O)NCCNc5cccc6c5C(=O)N(C5CCC(=O)NC5=O)C6=O)CC4)cc3)nc2n1-c1cccc(C(C)(C)O)n1` (configuration not stated), the Activity in experiment [1] and in experiment [2] was 41% in each case.

With `C=CCn1c(=O)c2cnc(Nc3ccc(N4CCN(CCCC(=O)NCCCC(=O)NCCNc5cccc6c5C(=O)N(C5CCC(=O)NC5=O)C6=O)CC4)cc3)nc2n1-c1cccc(C(C)(C)O)n1` (configuration not stated), the Activity in experiment [1] amounted to 60%; in experiment [2], 47%.

In the case of `C=CCn1c(=O)c2cnc(Nc3ccc(N4CCN(CCCC(=O)NCCCCCC(=O)N[C@H](C(=O)N5C[C@H](O)C[C@H]5C(=O)NCc5ccc(-c6scnc6C)cc5)C(C)(C)C)CC4)cc3)nc2n1-c1cccc(C(C)(C)O)n1`, the Activity in [3] was determined as 71%; in experiment [5], 64%. In experiment [13], the outcome was Active.

Take `C=CCn1c(=O)c2cnc(Nc3ccc(N4CCN(CCCC(=O)NCCNc5cccc6c5C(=O)N(C5CCC(=O)NC5=O)C6=O)CC4)cc3)nc2n1-c1cccc(C(C)(C)O)n1` (configuration not stated): the Activity in [1] was 38%; in experiment [2], 21%. For the same compound, in experiment [6], the outcome was Active.

Regarding `C=CCn1c(=O)c2cnc(Nc3ccc(N4CCN(C)CC4)cc3)nc2n1-c1cccc(C(C)(C)O)n1` [ADAVOSERTIB], the 50% inhibitory concentration (IC50) was 0.49 µM in experiment [8], 8 µM in experiment [10], 0.5 µM in experiment [11] and 1.1 µM in [12].

For `C=CCn1c(=O)c2cnc(Nc3ccc(N4CCN(CCCC(=O)NCCCCCCCCCCC(=O)N[C@H](C(=O)N5C[C@H](O)C[C@H]5C(=O)NCc5ccc(-c6scnc6C)cc5)C(C)(C)C)CC4)cc3)nc2n1-c1cccc(C(C)(C)O)n1`, the Activity is 50% in experiment [3] and 47% in experiment [5]. Also, the result in experiment [13] was Active.

Consider `C=CCn1c(=O)c2cnc(Nc3ccc(N4CCN(CCCC(=O)NCCCCCC(=O)NCCNc5cccc6c5C(=O)N(C5CCC(=O)NC5=O)C6=O)CC4)cc3)nc2n1-c1cccc(C(C)(C)O)n1` (configuration not stated), for which the values for the Activity in experiment [1] and in experiment [2] were 54% and 75%, respectively.

With `C=CCn1c(=O)c2cnc(Nc3ccc(N4CCN(CCCC(=O)NCCOCCOCC(=O)NCCNc5cccc6c5C(=O)N(C5CCC(=O)NC5=O)C6=O)CC4)cc3)nc2n1-c1cccc(C(C)(C)O)n1` (configuration not stated), the outcome in experiment [14] was Active. Besides, the Activity is 80% in [1] and 81% in [2].

For the compound `C=CCn1c(=O)c2cnc(Nc3ccc(N4CCN(CCCC(=O)N[C@H](C(=O)N5C[C@@H](O)C[C@H]5C(=O)NCc5ccc(-c6scnc6C)cc5)C(C)(C)C)CC4)cc3)nc2n1-c1cccc(C(C)(C)O)n1`, the half-maximal inhibitory concentration (IC50) in [8] was found to be 1.7 µM; in experiment [10] it was 8.7 µM; in [11] it was 3.46 µM; in experiment [12], 3.3 µM. Further, the result in experiment [15] and in experiment [16] was Active.

On to `C=CCn1c(=O)c2cnc(Nc3ccc(N4CCN(CCCC(=O)NCCCC(=O)N[C@H](C(=O)N5C[C@H](O)C[C@H]5C(=O)NCc5ccc(-c6scnc6C)cc5)C(C)(C)C)CC4)cc3)nc2n1-c1cccc(C(C)(C)O)n1`, for which the Activity was 68% in experiment [3] and 55% in experiment [5]. For the same compound, the result in experiment [13] was Active.

Take `C=CCn1c(=O)c2cnc(Nc3ccc(N4CCN(CCCC(=O)NCCOCCOCCOCCOCCOCCNc5cccc6c5C(=O)N(C5CCC(=O)NC5=O)C6=O)CC4)cc3)nc2n1-c1cccc(C(C)(C)O)n1` (configuration not stated): the Activity in experiment [1] turned out to be 78%; in experiment [2] it was 51%.

In the case of `C=CCn1c(=O)c2cnc(Nc3ccc(N4CCN(CCCC(=O)NCCOCCNc5cccc6c5C(=O)N(C5CCC(=O)NC5=O)C6=O)CC4)cc3)nc2n1-c1cccc(C(C)(C)O)n1` (configuration not stated), the Activity in [1] amounted to 41%; in experiment [2], 38%. For the same compound, the result in experiment [6] and in experiment [7] was Active.
